Laboratory results: US20020132030A1, “Composition and method for prolonging the useful life of enteral feeding tubes” (priority 1999, published 2002)

What was measured:
Candida albicans [1] = experiment: Challenge of propyl paraben, sodium benzoate, potassium sorbate singly and in combinations in Isosource HN, Example 4; assay type: cell-based; conditions: 0.13% propyl paraben, 0.1% sodium benzoate, 0.1% potassium sorbate in Isosource HN
Experimental: (§1) The antimicrobials, propyl paraben, sodium benzoate, and potassium sorbate are challenged singly, and in combinations, against 5 organisms.
(§2) Isosource HN® is packaged and retorted with the allowable FDA limits. Three samples, A, B, or C are prepared, having, respectively, 0.13% propyl paraben (A), 0.1% sodium benzoate (B), and 0.1% potassium sorbate (C). Additional samples D, E, and F are mixtures of A & B, A & C, and A & B & C. Three control samples: G having 0.26% ethanol; H having no preservatives and 1, a blank control are also prepared. A 350-ml aliquot of each retorted product is transferred to a sterile flask and inoculated with one of the designated organisms. A like trial is initiated for each of five organisms, Aspergillus niger, Candida albicans, Enterobacter cloacae, Staphylococcus aureus, and Lactobacillus delbrueckii. These organisms are inoculated, respectively, at 44 organisms/ml product; 2 organisms/ml product; 2 organisms/ml product; 4.1 organisms/ml product, and 30 organisms/ml product. An ethanol control is included for all the tests because it is used as the solvent carrier for paraben. An inoculated control with no inhibitors is also used for comparison. The samples are incubated at the appropriate temperature for optimum growth, and aliquots are pulled for testing at the designated intervals. Results are read and recorded as the population per milliliter of sample tested.

Enterobacter cloacae [2] = experiment: as above; assay type: cell-based; conditions: 0.13% propyl paraben, 0.1% sodium benzoate, 0.1% potassium sorbate in Isosource HN
Experimental: as §1, §2

[3] = system: 6 different organisms: A. niger, B. stearotherm, C. albicans, E. cloacae, L. Leichmanii, and S. aureus; experiment: Challenge study using combinations, overall summary over all organisms, Example 2; assay type: cell-based; conditions: for synergistic effect: in combination with one of the parabens
Experimental: (§3) A challenge study is done on commercially sterile product containing combinations of 4 GRAS antimicrobial agents: methyl paraben, propyl paraben, diacetyl, and natamycin. Ten different matrices are tested against 6 different organisms: A. niger, B. stearotherm, C. albicans, E. cloacae, L. Leichmanii, and S. aureus.

Enterobacter cloacae [4] = experiment: Paraben challenge in commercially sterile product (Isosource), Example 1; assay type: cell-based; conditions: 0.1% in Isosource; for Inhibition of Enterobacter cloacae: 24 hours
Experimental: (§4) Commercially sterile product (Isosource®) with 0.1% methyl or propyl paraben is prepared. Organisms were challenged in both variations at their optimum growth temperature and room temperature (RT). The populations are determined at different time intervals and compared to a spiked control without the parabens.

Aspergillus niger [5] = experiment: Challenge study using combinations of 4 GRAS antimicrobial agents, Example 2; assay type: cell-based; conditions: for effectiveness against growth of Aspergillus niger: 0.2%
Experimental: as §3

[6] = system: Bacillus stearothermophilus; experiment: as above; assay type: cell-based
Experimental: as §3

Candida albicans [7] = experiment: as above; assay type: cell-based; conditions: 0.2%
Experimental: as §3

Enterobacter cloacae [8] = experiment: as above; assay type: cell-based; conditions: 0.2%
Experimental: as §3

Lactobacillus leichmanni = experiment: as above; assay type: cell-based; conditions: 0.2%
Experimental: as §3

Candida albicans [9] = experiment: Paraben challenge in commercially sterile product (Isosource), Example 1; assay type: cell-based; conditions: 0.1% in Isosource
Experimental: as §4

Staphylococus aureus = experiment: Challenge study using combinations of 4 GRAS antimicrobial agents, Example 2; assay type: cell-based
Experimental: as §3

Candida albicans [10] = experiment: Feeding tube lifetime (clogging) test in vitro, Example 3; conditions: 0.1% in formula, feeding tube inoculated with 100 CFU Candida albicans, approximately 30° C.
Experimental: Feeding solution is perfused through a feeding tube and maintained at approximately 30° C. during the test, which may last several days or weeks. At the time the test is begun the solution within the feeding tube is inoculated with 100 CFU of Candida albicans. After a few hours of incubation (no flow in the tube), perfusion is started and continued until the tube becomes clogged due to overgrowth of the microorganisms.

Aspergillus niger [11] = experiment: Challenge of propyl paraben, sodium benzoate, potassium sorbate singly and in combinations in Isosource HN, Example 4; assay type: cell-based
Experimental: as §1, §2

5 organisms = experiment: Challenge of three antimicrobials, overall summary over 5 organisms, Example 4; assay type: cell-based; conditions: 0.13% propyl paraben, 0.1% sodium benzoate, 0.1% potassium sorbate in Isosource HN
Experimental: as §1
as §2, with “The samples are incubated at the appropriate temperature for optimum growth, and aliquots are pulled for testing at the designated intervals.” left out

C/C=C/C=C/C(=O)[O-].[K+] [Potassium sorbate, potassium sorbate]
inhibition of Candida albicans (Candida albicans [1]): not effective | Inhibition of Enterobacter cloacae (Enterobacter cloacae [2]): most effective agent alone

CC(=O)C(C)=O [diacetyl]
effectiveness alone compared with the parabens ([3]; alone): not as effective alone as the parabens | synergistic effect [3]: does not contribute any synergistic effect

COC(=O)c1ccc(O)cc1 [methyl paraben]
Inhibition of Enterobacter cloacae (Enterobacter cloacae [4]; 35° C.): dramatic | difference in population compared to the control (Enterobacter cloacae [4]; 35° C., 48 hours): 0.5 logs | Inhibition of Enterobacter cloacae (Enterobacter cloacae [4]; room temperature): slight inhibition | growth lower than the propyl paraben sample (Enterobacter cloacae [4]; room temperature, 48 hours): 1.5 logs | effectiveness against growth of Aspergillus niger (Aspergillus niger [5]): most effective | effectiveness alone against Aspergillus (Aspergillus niger [5]; alone, summary statement): very effective | inhibition of Bacillus stearothermophilus growth [6]: greatest amount of inhibition | effectiveness alone against Bacillus ([6]; alone, summary statement): very effective | inhibition of Candida albicans (Candida albicans [7]): slight inhibitory effect | effect on Enterobacter cloacae growth (Enterobacter cloacae [8]; first 24 hours): slows growth slightly | effect on Enterobacter cloacae growth (Enterobacter cloacae [8]; otherwise (other than first 24 hours)): uninhibited | effectiveness against Lactobacillus leichmanni (Lactobacillus leichmanni): effective | inhibition of the other organisms ([3]; alone): slightly inhibitory on three others

C[C@@H]1C/C=C/C=C/C=C/C=C/[C@H](O[C@@H]2O[C@H](C)[C@@H](O)[C@H](N)[C@@H]2O)C[C@@H]2O[C@](O)(C[C@@H](O)C[C@H]3O[C@@H]3/C=C/C(=O)O1)C[C@H](O)[C@H]2C(=O)O [natamycin]
effectiveness alone compared with the parabens ([3]; alone): not as effective alone as the parabens | synergistic effect [3]: does not contribute any synergistic effect

CCCOC(=O)c1ccc(O)cc1 [propyl paraben]
lower CFU/ml of Candida albicans than the control (Candida albicans [9]; 7 days): 2-3 log cycle | difference in Candida albicans CFU/ml from the control (Candida albicans [9]; 14 days): < 2 logs | effectiveness against growth of Aspergillus niger (Aspergillus niger [5]): most effective | inhibition of Candida albicans (Candida albicans [7]): good inhibition | effectiveness against Lactobacillus leichmanni (Lactobacillus leichmanni): effective | inhibition against S. aureus (Staphylococus aureus; 0.2% propyl paraben, summary statement): slight inhibition | inhibitory effect on Staphylococus aureus (Staphylococus aureus; 0.2%, first 24 hours): slight inhibitory effect | organisms showing good inhibition ([3]; 0.2%): good inhibition of three out of the six organisms | overall inhibitory effectiveness among agents ([3]; 0.2%): most effective inhibitory agent overall | extension of the time when clogging occurred beyond that attained with no paraben (Candida albicans [10]): 1 to 2 weeks | Aspergillus niger growth inhibition (Aspergillus niger [11]; 0.13% propyl paraben in Isosource HN, compared with the other antimicrobials): inhibited most | spore growth of Aspergillus niger (Aspergillus niger [11]; 7 days): do not exhibit spore growth | overall effectiveness over the five challenge organisms (5 organisms): more effective against 4 of the organisms than either of the other 2 antimicrobials alone
